For data set [1], the system named is Mycobacterium avium subsp. paratuberculosis. Briefly: Antimycobacterial activity against Mycobacterium avium subsp. paratuberculosis isolate CIT03 incubated for 11 days by alamar blue assay. The note with it: isolate CIT03, 264 h. Format: functional. In general terms: Alamar Blue is a resazurin reagent that responds to reducing activity.
In data set [2] the test system is Mycobacterium tuberculosis. In words: microbe, parasite or virus in culture. Format: functional. The note with it: H37Ra ATCC 25177, 168 h.
Description: Antimycobacterial activity against Mycobacterium tuberculosis H37Ra ATCC 25177 incubated for 7 days by alamar blue assay
Data set [3] relates to Mycobacterium avium complex sp. In words: Antimycobacterial activity against Mycobacterium avium complex isolate CIT19/06 incubated for 5 days by alamar blue assay. The note with it: isolate CIT19/06, 120 h. Format: functional.
Data set [4] deals with Mycobacterium tuberculosis. Briefly: Antimycobacterial activity against Mycobacterium tuberculosis H37Ra ATCC 25177 assessed as cell viability at 8 ug/ml incubated for 7 days by MTT assay. In kind it is functional. Background: Formazan colour is commonly taken as a measure of viable cells.
A short description of data set [5]: Lipophilicity, log K of the compound by HPLC method. Format: physicochemical.
The next data set concerns THP-1. In words: Cytotoxicity against human THP1 cells after 24 hrs by WST1 assay. Format: cell-based. The note with it: THP-1, 24 h.

Converted amounts (≈) assume the structure as drawn. Where only a bound is given, the exact number is not on record here.

`NNC(=O)c1ccncc1` [ISONIAZID]: the MIC90 was 1820 µM (≈ 250 µg/mL) in data set [1], 58 µM (≈ 7.95 µg/mL) in data set [2] and 3650 µM (≈ 500 µg/mL) in data set [3].

A word on the IC50: it is the concentration at which inhibition is half-maximal. High values mean lower potency, low ones higher potency. On to `O=C(Nc1cccc(Br)c1)c1ccc2cc(O)ccc2c1`, for which the Activity in data set [4] is given as 41.2%. Also, in data set [5], the “log K” value turned out to be 0.8767. Besides, in the data set with THP-1, the IC50 is above 30 µM. Besides, the MIC90 in data set [1] came out at 23 µM (≈ 7.87 µg/mL); in data set [2], 23 µM (≈ 7.87 µg/mL); in data set [3], 175 µM (≈ 59.9 µg/mL).

Take `O=C(Nc1cccc(Cl)c1)c1ccc2cc(O)ccc2c1`: the Activity in data set [4] stood at 46.5%. In data set [5], the “log K” value is 0.7684. Moreover, the MIC90 was 840 µM (≈ 250 µg/mL) in data set [1], 27 µM (≈ 8.04 µg/mL) in data set [2] and 101 µM (≈ 30.1 µg/mL) in data set [3].

`O=C(Nc1ccc(Cl)cc1)c1ccc2cc(O)ccc2c1`: the Activity in data set [4] was found to be 43.8%. Also, the “log K” value in data set [5] is recorded as 0.7947. In the data set with THP-1, this compound came in with an IC50 above 30 µM. Further, the MIC90 in data set [1] came out at 50 µM (≈ 14.9 µg/mL); in data set [2] it was 27 µM (≈ 8.04 µg/mL); in data set [3] it was 202 µM (≈ 60.1 µg/mL).

On to `CO[C@H]1/C=C/O[C@@]2(C)Oc3c(C)c(O)c4c(O)c(c(/C=N/N5CCN(C)CC5)c(O)c4c3C2=O)NC(=O)/C(C)=C\C=C\[C@H](C)[C@H](O)[C@@H](C)[C@@H](O)[C@@H](C)[C@H](OC(C)=O)[C@@H]1C` [RIFAMPIN], for which the MIC90 worked out at 109 µM (≈ 89.7 µg/mL) in data set [1], 10 µM (≈ 8.23 µg/mL) in data set [2] and 10 µM (≈ 8.23 µg/mL) in data set [3].

Take `O=C(Nc1ccc(C(F)(F)F)cc1)c1ccc2cc(O)ccc2c1`: in data set [5], the “log K” value amounted to 1.0133. In the data set on THP-1, this compound gave an IC50 above 30 µM. In addition, the MIC90 in data set [1] worked out at 91 µM (≈ 30.1 µg/mL); in data set [2] it was 24 µM (≈ 7.95 µg/mL); in data set [3], 91 µM (≈ 30.1 µg/mL).

With `O=C(Nc1ccccc1)c1ccc2cc(O)ccc2c1`, the “log K” value in data set [5] amounted to 0.6612. The compound further came in with an IC50 with THP-1 above 30 µM. Moreover, the MIC90 in data set [1] worked out at 30 µM (≈ 7.9 µg/mL); in data set [2], 30 µM (≈ 7.9 µg/mL); in data set [3], 57 µM (≈ 15 µg/mL).

`Cc1ccc(NC(=O)c2ccc3cc(O)ccc3c2)cc1`: in data set [5], the “log K” value turned out to be 0.6227. The same compound registered an IC50 in the data set with THP-1 above 30 µM. Also, the MIC90 in data set [1] amounted to 29 µM (≈ 8.04 µg/mL); in data set [2], 29 µM (≈ 8.04 µg/mL); in data set [3], 451 µM (≈ 125 µg/mL).

With `O=C(Nc1ccc(Br)cc1)c1ccc2cc(O)ccc2c1`, the “log K” value in data set [5] is given as 0.8884. In addition, the MIC90 in data set [1] is 731 µM (≈ 250 µg/mL); in data set [2], 23 µM (≈ 7.87 µg/mL); in data set [3] it was 1460 µM (≈ 500 µg/mL).

Consider `COc1cccc(NC(=O)c2ccc3cc(O)ccc3c2)c1`, for which, in data set [4], the Activity is given as 62.2%. Moreover, in data set [5], the “log K” value was found to be 0.4463. Further, in the data set on THP-1, the IC50 is above 30 µM. For the same compound, the MIC90 in data set [1] stood at 27 µM (≈ 7.92 µg/mL); in data set [2], 27 µM (≈ 7.92 µg/mL); in data set [3] it was 102 µM (≈ 29.9 µg/mL).

On to `O=C(Nc1ccccc1Br)c1ccc2cc(O)ccc2c1`, for which the “log K” value in data set [5] worked out at 0.7486. This compound had an IC50 in the data set on THP-1 above 30 µM. The MIC90 in data set [1] stood at 23 µM (≈ 7.87 µg/mL); in data set [2] it was 175 µM (≈ 59.9 µg/mL); in data set [3], 88 µM (≈ 30.1 µg/mL).

As to `COc1ccc(NC(=O)c2ccc3cc(O)ccc3c2)cc1`, the Activity in data set [4] amounted to 69%. Also, in data set [5], the “log K” value amounted to 0.3313. This compound also displayed an IC50 with THP-1 above 30 µM. Moreover, the MIC90 is 27 µM (≈ 7.92 µg/mL) in data set [1], 27 µM (≈ 7.92 µg/mL) in data set [2] and 852 µM (≈ 250 µg/mL) in data set [3].

For the compound `O=C(Nc1ccccc1F)c1ccc2cc(O)ccc2c1`, in data set [5], the “log K” value turned out to be 0.4921. Also, the results for the MIC90 in data set [1], in data set [2] and in data set [3] were 53 µM (≈ 14.9 µg/mL), 107 µM (≈ 30.1 µg/mL) and 107 µM (≈ 30.1 µg/mL), respectively.

Consider `O=C(Nc1ccccc1Cl)c1ccc2cc(O)ccc2c1`, for which the Activity in data set [4] was 38%. Moreover, the “log K” value in data set [5] worked out at 0.6777. Moreover, in the data set on THP-1, the IC50 was above 30 µM. For the same compound, the MIC90 came to 840 µM (≈ 250 µg/mL) in data set [1], 27 µM (≈ 8.04 µg/mL) in data set [2] and 50 µM (≈ 14.9 µg/mL) in data set [3].

As for `O=C(Nc1ccccc1C(F)(F)F)c1ccc2cc(O)ccc2c1`, the “log K” value in data set [5] is 0.5623. Further, the MIC90 stood at 377 µM (≈ 125 µg/mL) in data set [1], 91 µM (≈ 30.1 µg/mL) in data set [2] and 181 µM (≈ 60 µg/mL) in data set [3].

Consider `Cc1ccccc1NC(=O)c1ccc2cc(O)ccc2c1`, for which the “log K” value in data set [5] came to 0.369. In the data set on THP-1, this compound displayed an IC50 above 30 µM. Besides, the MIC90 in data set [1], in data set [2] and in data set [3] was 29 µM (≈ 8.04 µg/mL) throughout.

Take `Cc1cccc(NC(=O)c2ccc3cc(O)ccc3c2)c1`: the “log K” value in data set [5] is 0.6086. Moreover, in the data set on THP-1, the IC50 is above 30 µM. Moreover, the MIC90 worked out at 29 µM (≈ 8.04 µg/mL) in data set [1], 29 µM (≈ 8.04 µg/mL) in data set [2] and 54 µM (≈ 15 µg/mL) in data set [3].

For `O=C(Nc1ccccc1[N+](=O)[O-])c1ccc2cc(O)ccc2c1`, in data set [5], the “log K” value is on record as 0.8553. In addition, in the data set with THP-1, the IC50 is above 30 µM. Also, the MIC90 in data set [1] stood at 26 µM (≈ 8.02 µg/mL); in data set [2], 97 µM (≈ 29.9 µg/mL); in data set [3], 195 µM (≈ 60.1 µg/mL).

Regarding `COc1ccccc1NC(=O)c1ccc2cc(O)ccc2c1`, the “log K” value in data set [5] came out at 0.6039. Further, the IC50 in the data set on THP-1 was above 30 µM. Also, the MIC90 came to 27 µM (≈ 7.92 µg/mL) in data set [1], 27 µM (≈ 7.92 µg/mL) in data set [2] and 51 µM (≈ 15 µg/mL) in data set [3].

Turning to `O=C(Nc1cccc(C(F)(F)F)c1)c1ccc2cc(O)ccc2c1`, the Activity in data set [4] is 42.9%. The “log K” value in data set [5] was determined as 0.9558. Moreover, the IC50 in the data set with THP-1 was above 30 µM. For the same compound, the figures for the MIC90 in data set [1], in data set [2] and in data set [3] were 24 µM (≈ 7.95 µg/mL), 24 µM (≈ 7.95 µg/mL) and 91 µM (≈ 30.1 µg/mL), respectively.

`O=C(Nc1ccc(F)cc1)c1ccc2cc(O)ccc2c1`: the “log K” value in data set [5] is on record as 0.6726. For the same compound, the MIC90 stood at 53 µM (≈ 14.9 µg/mL) in data set [1], 28 µM (≈ 7.88 µg/mL) in data set [2] and 213 µM (≈ 59.9 µg/mL) in data set [3].

Consider `O=C(Nc1cccc([N+](=O)[O-])c1)c1ccc2cc(O)ccc2c1`, for which the “log K” value in data set [5] amounted to 0.8533. In addition, the IC50 in the data set with THP-1 is above 30 µM. Further, the figures for the MIC90 in data set [1], in data set [2] and in data set [3] were 26 µM (≈ 8.02 µg/mL), 26 µM (≈ 8.02 µg/mL) and 97 µM (≈ 29.9 µg/mL), respectively.

As to `O=C(Nc1ccc([N+](=O)[O-])cc1)c1ccc2cc(O)ccc2c1`, the “log K” value in data set [5] was 0.5911. Besides, the MIC90 in data set [1] was 97 µM (≈ 29.9 µg/mL); in data set [2], 26 µM (≈ 8.02 µg/mL); in data set [3] it was 49 µM (≈ 15.1 µg/mL).

For the compound `O=C(Nc1cccc(F)c1)c1ccc2cc(O)ccc2c1`, the “log K” value in data set [5] amounted to 0.5766. Further, the MIC90 in data set [1] is 53 µM (≈ 14.9 µg/mL); in data set [2], 28 µM (≈ 7.88 µg/mL); in data set [3], 53 µM (≈ 14.9 µg/mL).

These data come from ChEMBL document CHEMBL3399925, “Synthesis and antimycobacterial properties of ring-substituted 6-hydroxynaphthalene-2-carboxanilides” (Bioorg Med Chem, 2015).
